Patent publication US9096515B2, “Methods of using cycloalkylmethylamine derivatives” (Reviva Pharmaceuticals, Inc., priority 2010, dated 2015)
Where two headings read alike, the source gives them in different places.

Tests used:
[1] = target: human recombinant transporter protein serotonin (SERT) (Homo sapiens (Human), UniProt P31645); test: radioligand binding assay, serotonin transporter
Experimental: (§1) The monoamine transporters inhibitory activities of selected compounds cycloalkylmethylamine derivatives comprising Formula (I) are reported herein. The compounds were evaluated using well established radioligand binding assays protocols (Galli, A. et al., J. Exp. Biol. 1995, 198, 2197-2212; Giros, B. et al., Trends Pharmcol. Sci. 1993, 14, 43-49; Gu, H. et al., J. Biol. Chem. 1994, 269(10), 7124-7130; Shearman, L. P. et al, Am. J. Physiol., 1998, 275(6 Pt 1), C1621-1629; Wolf, W. A. et al., J. Biol. Chem. 1992, 267(29), 20820-20825). The human recombinant transporter proteins dopamine (DAT), norepinephrine (NET) and serotonin (SERT) were selected for the in vitro assays. The radioligand binding assays were carried out at 11 different test concentrations […] to 1 μM.
(§2) The assays were carried out in duplicates and the quantitative data are reported as Ki in the TABLE 1.

[2] = target: human recombinant transporter protein dopamine (DAT) (Homo sapiens (Human), UniProt Q01959); test: radioligand binding assay, dopamine transporter
Experimental: as §1, §2

[3] = target: human recombinant transporter protein norepinephrine (NET) (Homo sapiens (Human), UniProt P23975); test: radioligand binding assay, norepinephrine transporter
Experimental: as §1, §2

[4] = active metabolites of sibutramine; background statement; cited from earlier work
[5] = human recombinant SERT, 11 test concentrations 0.1 nm to 1 μM, duplicates, read-out: SERT Ki
[6] = human recombinant DAT, 11 test concentrations 0.1 nm to 1 μM, duplicates, read-out: DAT Ki
[7] = human recombinant NET, 11 test concentrations 0.1 nm to 1 μM, duplicates, read-out: NET Ki

Chain of human recombinant transporter protein norepinephrine (NET) (P23975 whole entry): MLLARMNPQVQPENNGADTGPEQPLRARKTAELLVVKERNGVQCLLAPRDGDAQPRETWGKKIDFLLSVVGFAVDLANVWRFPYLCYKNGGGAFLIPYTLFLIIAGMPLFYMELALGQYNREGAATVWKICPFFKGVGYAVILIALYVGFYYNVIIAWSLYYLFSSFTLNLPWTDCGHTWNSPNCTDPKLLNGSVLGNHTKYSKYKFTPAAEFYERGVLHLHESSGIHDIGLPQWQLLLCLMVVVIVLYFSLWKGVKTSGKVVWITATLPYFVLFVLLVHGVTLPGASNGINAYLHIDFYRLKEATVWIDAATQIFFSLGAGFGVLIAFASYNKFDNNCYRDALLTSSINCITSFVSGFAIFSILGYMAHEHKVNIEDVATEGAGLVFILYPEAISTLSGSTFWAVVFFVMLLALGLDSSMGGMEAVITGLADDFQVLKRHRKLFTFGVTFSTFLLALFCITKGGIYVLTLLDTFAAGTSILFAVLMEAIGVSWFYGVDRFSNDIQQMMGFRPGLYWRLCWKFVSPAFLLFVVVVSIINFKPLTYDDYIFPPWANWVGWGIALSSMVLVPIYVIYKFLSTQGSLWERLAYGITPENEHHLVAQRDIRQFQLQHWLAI
Chain of human recombinant transporter protein dopamine (DAT) (Q01959 whole entry): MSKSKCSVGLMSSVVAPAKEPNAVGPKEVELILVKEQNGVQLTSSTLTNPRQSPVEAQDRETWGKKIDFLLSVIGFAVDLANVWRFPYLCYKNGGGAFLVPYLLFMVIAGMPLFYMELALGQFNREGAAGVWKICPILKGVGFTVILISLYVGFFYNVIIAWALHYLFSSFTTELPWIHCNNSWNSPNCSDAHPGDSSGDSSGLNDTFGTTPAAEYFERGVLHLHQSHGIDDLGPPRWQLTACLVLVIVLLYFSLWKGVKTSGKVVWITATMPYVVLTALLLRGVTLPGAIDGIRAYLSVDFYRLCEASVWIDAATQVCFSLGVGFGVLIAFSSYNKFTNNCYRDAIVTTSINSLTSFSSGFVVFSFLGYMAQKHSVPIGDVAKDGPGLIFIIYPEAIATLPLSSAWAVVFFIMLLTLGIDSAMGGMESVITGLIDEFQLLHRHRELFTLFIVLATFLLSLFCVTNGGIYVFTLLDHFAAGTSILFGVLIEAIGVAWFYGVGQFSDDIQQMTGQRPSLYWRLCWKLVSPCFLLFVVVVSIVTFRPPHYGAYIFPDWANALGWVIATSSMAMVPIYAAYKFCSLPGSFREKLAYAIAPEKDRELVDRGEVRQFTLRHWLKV

Row | Compound | Ki [1, 5] [nM] | Ki [2, 6] [nM] | Ki [3, 7] [nM] | Ki [2] [nM] | Ki [3] [nM] | Ki [1] [nM] | elimination half-life [4] [h]
1 | 2-((1-(1-(3,4-Dichlorophenyl)cyclobutyl)-3-methylbutyl)amino)ethyl propionate [Compound 12q] | 10.6 | 7.2 | 38.2 |  |  |  | 
2 | CC(CCNCCCC(N)=O)CC1(c2ccc(Cl)c(Cl)c2)CCC1 (racemic) [33a -Racemic] | 8.1 | 1.5 | 50.1 |  |  |  | 
3 | CCOc1ccc(C2(CC(C)CCNCCCC(N)=O)CCC2)cc1 (racemic) [33b -Racemic] | 5.49 | 472 | > 10000 |  |  |  | 
4 | C[C@@H](CCNCCCC(N)=O)CC1(c2ccc(Cl)c(Cl)c2)CCC1 (single isomer, unassigned) [33a -(R)-Isomer] | 2.3 | 0.91 | 30.3 |  |  |  | 
5 | CCOc1ccc(C2(C[C@@H](C)CCNCCCC(N)=O)CCC2)cc1 (single isomer, unassigned) [33b -(R)-Isomer] | 2.79 | 130 | 6520 |  |  |  | 
6 | CCOc1ccc(C2(C[C@H](C)CCNCCCC(N)=O)CCC2)cc1 (single isomer, unassigned) [33b -(S)-Isomer] | 329 | 4030 | 1090 |  |  |  | 
7 | CCOc1ccc(C2(C(CC(C)C)NCCOC(=O)CC)CCC2)cc1 (centres unmarked) [Compound 12u, 2-((1-(1-(4-Ethoxyphenyl)cyclobutyl)-3-methylbutyl)amino)ethyl propionate] | 5.7 | 80.4 | 2340 |  |  |  | 
8 | CCOC(=O)NCCNC(CC(C)C)C1(c2ccc(Cl)c(Cl)c2)CCC1 (centres unmarked) [Compound 21a, Ethyl (2-((1-(1-(3,4-dichlorophenyl)cyclobutyl)-3-methylbutyl)amino)ethyl)carbamate] | 1 |  |  | 38.4 | 13.4 |  | 
9 | CCOC(=O)NCCNC(CC(C)C)C1(c2ccc(OCC)cc2)CCC1 (centres unmarked) [Compound 21b, Ethyl (2-((1-(1-(4-ethoxyphenyl)cyclobutyl)-3-methylbutyl)amino)ethyl)carbamate] |  |  |  | 159 | 1920 | 2 | 
10 | CCCC(=O)NCCNC(CC(C)C)C1(c2ccc(Cl)c(Cl)c2)CCC1 (centres unmarked) [Compound 31a, N-(2-((1-(1-(3,4-Dichlorophenyl)cyclobutyl)-3-methylbutyl)amino)ethyl)butyramide] | 27.8 |  |  | 52.7 | 77.7 |  | 
11 | CCCC(=O)NCCNC(CC(C)C)C1(c2ccc(OCC)cc2)CCC1 (centres unmarked) [Compound 31b, N-(2-((1-(1-(4-Ethoxyphenyl)cyclobutyl)-3-methylbutyl)amino)ethyl)butyramide] |  | 251 |  |  | 4730 | 25 | 
12 | CNC(CC(C)C)C1(c2ccc(Cl)cc2)CCC1 (centres unmarked) [Compound M1] |  |  |  |  |  |  | 14
13 | CC(C)CC(N)C1(c2ccc(Cl)cc2)CCC1 (centres unmarked) [Compound M2] |  |  |  |  |  |  | 16
